Data: US20070270350A1, “Methods and Compositions for the Prevention and Treatment of Inflammatory Diseases or Conditions” (MUSC FOUNDATION FOR RESEARCH DEVELOPMENT, priority 2003, published 2007)

How the values were obtained:
[1] = system: iNOS; experiment: LPS/IFN-induced NO production and iNOS gene expression in primary astrocytes; assay type: cell-based, rat; details: for effect on D-PDMP mediated inhibition of NO production: glycosphingolipid 5 and 10 μM added with D-PDMP 50 μM, 0.5 hr before LPS/IFN
[2] = system: Macrophages; details: 10 μM lovastatin or 5 mM NaPA 8 h, LPS 1.0 μg/ml, 24 h
[3] = system: Microglia; details: 10 μM lovastatin or 5 mM NaPA 8 h, LPS 1.0 μg/ml, 24 h
[4] = system: Rat Primary Astrrocytes; details: LPS 1.0 μg/ml, 24 h
[5] = system: iNOS; experiment: LPS/IFN-induced NO production and iNOS expression in C6 glioma cells; assay type: cell-based, rat; details: exogenous glycosphingolipid with D-PDMP
Protocol: C6 rat glioma cells obtained from ATCC were maintained in Dulbecco's modified Eagle's medium (DMEM) (GIBCO, CA) containing 10% fetal bovine serum (FBS) (GIBCO) and 10 ? g/ml gentamicin. All the cultured cells were maintained at 37° C. in 5% CO2/95% air. At 80% confluency, the cells were incubated with serum free DMEM medium for 24 h prior to the incubation with LPS/IFN ? and other chemicals. Assay for NO production. Cells were cultured in 12-well plastic tissue culture plates. After the appropriate treatment, production of NO was determined by an assay of the culture supernatant for nitrite (Green et al., 1982). Briefly, 100 μl of culture supernatant was allowed to react with 100 μl of Griess reagent. The optical density of the assay samples was measured spectrophotometrically at 570 nm. Nitrite concentrations were calculated from a standard curve derived from the reaction of NaNO2 in fresh media. Western Blot Analysis. […] The protein concentration of samples was determined with the detergent compatible protein assay reagent (Bio-Rad Laboratories, CA) using bovine serum albumin (BSA) as the standard. Sample was boiled for 3 min with 0.1 volumes of 10% O-mercaptoethanol and 0.5% bromophenol blue mix. Fifty μg of total cellular protein was resolved by electrophoresis in 8 or 12% polyacrylamide gels, electro-transferred to polyvinylidene difluoride (PVDF) filter and blocked with Tween 20 containing Tris-buffered saline [TBST; 10 mM Trizma base (pH 7.4), 1% Tween 20, and 150 mM NaCl] with 5% skim milk. After incubation with antiserum against iNOS (BD PharMingen, CA), or hRas (Upstate Biotechnology, CA), or phospho-specific MAPK (p42/44) (Signal Transduction), in PVDF buffer for 2 h at room temperature, the filters were washed 3 times with TBST buffer and then incubated with horseradish peroxidase conjugated anti-rabbit or mouse IgG for 1 h. The membranes were autoradiographed by using ECL-plus (Amersham Pharmacia Biotech) after washing with TBST buffer. RT-PCR amplification. […] PCR amplification was conducted in 25 ? l of reaction mixture with 1.0 ? l of cDNA, […] and under the manufacturer's Taq polymerase conditions (Takara, […] Shuzo Co. Ltd, Japan). The sequence of primers used for PCR amplification are as follows; iNOS, (Forward-[NT], Reverse-[NT]), GalT-2 (Forward-[NT], Reverse-[NT]), GAPDH (Forward-[NT], Reverse-[NT]).

[6] = Comparison of biology of IFN-β, GA and statin + GSNO (Table 2)
Excerpt: FIGS. 28-52 provide additional data that show the effectiveness of statins in treating a variety of inflammatory diseases such as multiple sclerosis, spinal cord injury, stroke, and kinic acid induced seizures. Additionally, Table 2 provides data concerning the treatment of multiple sclerosis (MS) with statins as compared to two other approved MS drugs.

[7] = PD98059 pretreatment 0.5 hr before LPS, 24 hrs

Compound: 5′-CGCTTGAGCGCAGACATCTT-3′ (chemistry not given here) [antisense DNA oligomer, 20-mer antisense oligonucleotide targeted against rat lactosylceramide synthase (GalT-2)]
- iNOS mRNA and protein levels ([1]; GalT-2 antisense 200 nM oligo, stimulated 2 d after transfection, 6 hrs mRNA, 24 hrs protein): reduced significantly
- LPS/IFN-mediated NO production ([1]; GalT-2 antisense 200 nM oligo, stimulated 2 d after transfection, 24 hr): reduced significantly

Compound: O=C([O-])Cc1ccccc1.[Na+] [NaPA]
- TNF-α ([2]; LPS only 18.6 +/− 2.3): 1.7 +/− 0.2 ng/24 h/mg protein
- Il-1β ([2]; LPS only 34.6 +/− 4.5): 3.1 +/− 0.4 ng/24 h/mg protein
- NO ([2]; LPS only 118.5 +/− 12.5): 9.5 +/− 0.7 n mol/24 h/mg protein
- IL-6 ([2]; LPS only 350.0 +/− 27.6): 10.2 +/− 1.4 ng/24 h/mg protein
- TNF-α ([3]; LPS only 14.5 +/− 2.1): 1.3 +/− 0.2 ng/24 h/mg protein
- Il-1β ([3]; LPS only 28.2 +/− 3.4): 2.4 +/− 0.2 ng/24 h/mg protein
- NO ([3]; LPS only 81.2 +/− 6.9): 6.9 +/− 0.9 n mol/24 h/mg protein
- IL-6 ([3]; LPS only 295.6 +/− 33.5): 9.3 +/− 1.2 ng/24 h/mg protein
- TNF-α ([4]; 10 μM lovastatin or 5 mM NaPA 8 h, LPS only 5.3 +/− 0.8): 0.4 +/− 0.06 ng/24 h/mg protein
- Il-1β ([4]; 10 μM lovastatin or 5 mM NaPA 8 h, LPS only 10.4 +/− 1.5): 1.1 +/− 0.2 ng/24 h/mg protein
- IL-6 ([4]; 10 μM lovastatin or 5 mM NaPA 8 h, LPS only 136.5 +/− 16.8): 1.1 +/− 0.2 ng/24 h/mg protein
- NO ([4]; 10 μM lovastatin or 5 mM NaPA 8 h serum free, LPS only 25.3 +/− 3.2): 5.4 +/− 0.6 n mol/24 h/mg protein

Compound: COc1cccc(-c2cc(=O)c3ccccc3o2)c1N [PD98059]
- NO production [1, 7]: inhibition
- iNOS expression [1, 7]: inhibition

Compound: Glucosylceramide [GluCer]
- effect on D-PDMP mediated inhibition of NO production ([1]; 24 hrs): did not reverse
- effect on D-PDMP inhibition of NO production [5]: no effect
- effect on D-PDMP inhibition of iNOS mRNA and protein expression [5]: no effect

Compound: galactosylceramide [GalCer]
- effect on D-PDMP mediated inhibition of NO production ([1]; 24 hrs): did not reverse

Compound: glatiramer acetate [GA]
- Decrease expression of adhesion molecules [6]: No
- Decrease inflammatory cytokines [6]: Yes
- Decreased expression of MHCII [6]: No
- Excludes leukocytes from entering CNS [6]: No
- Inhibition of MMPs [6]: No
- Inhibition of chemokine expression [6]: No
- Inhibition of clonal expression of co-stimulatory molecules [6]: Yes
- Interferences with T-cell activation [6]: Yes
- Leukocyte trafficking across the blood brain barrier (BBB) [6]: No
- Neuroprotection [6]: Yes
- Protection of BBB [6]: No
- Reduced level of co-stimulatory molecules [6]: No
- Th1 to Th2 deviation [6]: Yes
